Assay results: PubChem BioAssay AID330 (DTP/NCI, 2004)
Where “and” joins values, the source holds several entries; their conditions need not be identical. Identical values can stand only once. Inconclusive results and toxic doses are left out. Rule for the calls: active = survival T/C of 150% or more; inactive = T/C below 125% in these data. Peptide text beside a SMILES is read from it. * marks the point of attachment. OtBu = CC(C)(C)O*

Tested on: P388 leukemia ip, CD2F1 mice, survival T/C
Experiment: NCI In Vivo Anticancer Drug Screen. Data for tumor model P388 Leukemia (intraperitoneal) in CD2F1 (CDF1) mice
Conditions: endpoint: median survival time, higher = longer survival
In short: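 Mice carrying the transplanted tumor received test compound or vehicle. Survival was recorded in each group, and the value is the treated-group measurement divided by that of the vehicle-treated control group.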

[1] = dose: 50.0 mg/kg/injection, schedule: Q01DX005 (ip), vehicle: Klucel (hydroxypropylcellulose) (HPC)
[2] = dose: 100.0 mg/kg/injection, schedule: Q01DX005 (ip), vehicle: Klucel (hydroxypropylcellulose) (HPC)
[3] = dose: 200.0 mg/kg/injection, schedule: Q01DX005 (ip), vehicle: Klucel (hydroxypropylcellulose) (HPC)
[4] = dose: 50.0 mg/kg/injection, schedule: Q01DX005 (ip), vehicle: saline with Tween-80
[5] = dose: 100.0 mg/kg/injection, schedule: Q01DX005 (ip), vehicle: saline with Tween-80
[6] = dose: 60.0 mg/kg/injection, schedule: Q01DX005 (ip), vehicle: saline with Tween-80
[7] = dose: 120.0 mg/kg/injection, schedule: Q01DX005 (ip), vehicle: saline with Tween-80
[8] = dose: 240.0 mg/kg/injection, schedule: Q01DX005 (ip), vehicle: saline with Tween-80
[9] = dose: 15.0 mg/kg/injection, schedule: Q01DX005 (ip), vehicle: saline with Tween-80
[10] = dose: 30.0 mg/kg/injection, schedule: Q01DX005 (ip), vehicle: saline with Tween-80
[11] = dose: 50.0 mg/kg/injection, schedule: Q01DX009 (ip), vehicle: saline with Tween-80
[12] = dose: 100.0 mg/kg/injection, schedule: Q01DX009 (ip), vehicle: saline with Tween-80
[13] = dose: 200.0 mg/kg/injection, schedule: Q01DX009 (ip), vehicle: saline with Tween-80
[14] = dose: 25.0 mg/kg/injection, schedule: Q01DX009 (ip), vehicle: saline with Tween-80
[15] = dose: 100.0 mg/kg/injection, schedule: Q04DX003 (ip), vehicle: saline
[16] = dose: 60.0 mg/kg/injection, schedule: Q01DX005 (ip), vehicle: Klucel (hydroxypropylcellulose) (HPC)
[17] = dose: 120.0 mg/kg/injection, schedule: Q01DX005 (ip), vehicle: Klucel (hydroxypropylcellulose) (HPC)

Measured: T/C

O=[N+]([O-])c1ccc(N/N=C\c2c(Cl)[nH]c3ccccc23)cc1
inactive: dose: 100.0 mg/kg/injection, schedule: Q04DX002 (ip), vehicle: saline + alcohol 86 % of control | dose: 200.0 mg/kg/injection, schedule: Q04DX002 (ip), vehicle: saline + alcohol 98 % of control | dose: 400.0 mg/kg/injection, schedule: Q04DX002 (ip), vehicle: saline + alcohol 104 % of control

CN(C)CCSc1nc2ccccc2s1
inactive: dose: 60.0 mg/kg/injection, schedule: Q01DX005 (ip), vehicle: saline 101 % of control | dose: 120.0 mg/kg/injection, schedule: Q01DX005 (ip), vehicle: saline 104 % of control

CC(C)CC(NC(=O)C(Cc1ccccc1)NC(=O)C1CCCN1)C(=O)OC(C)(C)C (stereo not drawn) (H-Pro-Phe-Leu-OtBu; configuration not given here)
inactive: [1] 102 % of control | [2] 94 % of control | [3] 94 % of control

CC(C)(c1ccccc1)[N+](C)(C)C
inactive: dose: 5.0 mg/kg/injection, schedule: Q01DX009 (ip), vehicle: saline with Tween-80 100 % of control | dose: 10.0 mg/kg/injection, schedule: Q01DX009 (ip), vehicle: saline with Tween-80 104 % of control | dose: 10.0 mg/kg/injection, schedule: Q04DX003 (ip), vehicle: saline 90 % of control | dose: 20.0 mg/kg/injection, schedule: Q01DX009 (ip), vehicle: saline with Tween-80 109 % of control | dose: 20.0 mg/kg/injection, schedule: Q04DX003 (ip), vehicle: saline 95 % of control

Cc1cccc(C2(C)C(=O)c3ccccc3C2=O)c1
inactive: dose: 100.0 mg/kg/injection, schedule: Q04DX002 (ip), vehicle: saline 100 % of control | dose: 200.0 mg/kg/injection, schedule: Q04DX002 (ip), vehicle: saline 105 % of control | dose: 400.0 mg/kg/injection, schedule: Q04DX002 (ip), vehicle: saline 102 % of control

C(=N/n1nnc(-c2ccccc2)n1)/c1ccccc1
inactive: [4] 101 % of control | [5] 92 % of control

NCCCn1[nH]c(=O)c2ncccc2c1=O
inactive: [6] 110 % of control | [7] 112 % of control | [8] 102 % of control

C[N+]12CCC34C5=CC(=O)C(=O)C=C5[N+]5(C)C(=O)CC6OCC=C(C1)C(CC32)C6C45 (stereo not given)
inactive: dose: 7.5 mg/kg/injection, schedule: Q01DX005 (ip), vehicle: saline 102 % of control | dose: 15.0 mg/kg/injection, schedule: Q01DX005 (ip), vehicle: saline 104 % of control | dose: 30.0 mg/kg/injection, schedule: Q01DX005 (ip), vehicle: saline 97 % of control

CCC(CO)[N-]CC[N-]C(CC)CO.CCC(CO)[N-]CC[N-]C(CC)CO.O.O.[Pd+2].[Pd+2] (stereo not given)
inactive: [1] 91 % of control | [2] 97 % of control | [3] 98 % of control

Nc1ccc(CCCCc2ccc(S(=O)(=O)F)cc2Cl)c(Cl)c1
inactive: [9] 101 % of control | [10] 118 % of control | [11] 91 % of control | [6] 93 % of control | [12] 99 % of control | [7] 87 % of control | [13] 98 % of control | [8] 92 % of control

FC(F)(F)C1(C(F)(F)F)SC(C(F)(F)F)(C(F)(F)F)S1
inactive: dose: 50.0 mg/kg/injection, schedule: Q01DX005 (ip), vehicle: saline 104 % of control | dose: 100.0 mg/kg/injection, schedule: Q01DX005 (ip), vehicle: saline 107 % of control | dose: 200.0 mg/kg/injection, schedule: Q01DX005 (ip), vehicle: saline 104 % of control

COC(SC)c1cc(-c2c(Cl)cccc2Cl)no1 (stereo not given)
inactive: [6] 93 % of control | [7] 103 % of control | [8] 107 % of control

CC1=Nc2cc(Cl)c(Cl)cc2N(C)/C1=C/C1=C(Cl)C(=O)c2ccccc2C1=O
inactive: dose: 6.25 mg/kg/injection, schedule: Q01DX009 (ip), vehicle: saline with Tween-80 114 % of control | dose: 12.5 mg/kg/injection, schedule: Q01DX009 (ip), vehicle: saline with Tween-80 95 % of control | [14] 107 % of control | [11] 105 % of control | [12] 104 % of control

O=C(CC(=O)N1N=C(N(c2ccccc2)c2ccccc2)CC1c1ccccc1)Nc1ccccc1Cl (stereo not given)
inactive: [4] 99 % of control | [5] 99 % of control | [8] 90 % of control

COc1ccc2c(c1OC)C(=O)OC2c1cc(Br)c(O)c(C2OC(=O)c3c2ccc(OC)c3OC)c1 (stereo not given)
inactive: [11] 90 % of control | [12] 86 % of control | [15] 87 % of control | dose: 400.0 mg/kg/injection, schedule: Q04DX003 (ip), vehicle: saline 87 % of control

Cc1csc2nc(-c3ccccc3)cn12
inactive: [4] 98 % of control | [5] 96 % of control | dose: 200.0 mg/kg/injection, schedule: Q01DX005 (ip), vehicle: saline with Tween-80 97 % of control

c1ccc2c(SCCOCCSc3c4ccccc4nc4ccccc34)c3ccccc3nc2c1
inactive: [6] 98 % of control | [7] 92 % of control | [8] 90 % of control

COC1=C(OC)C(=O)C2=C(OCCCCO2)C1=O
inactive: [9] 104 % of control | [10] 103 % of control | [6] 101 % of control and 107 % of control | [7] 100 % of control | [8] 99 % of control

COc1cccc2[nH]c(-c3ccccn3)nc12
inactive: [11] 95 % of control | [12] 104 % of control | [13] 95 % of control

COC1/C=C/O[C@@]2(C)Oc3c(C)c(O)c4c(O)c(cc(O)c4c3C2=O)NC(=O)/C(C)=C\C=C\[C@H](C)C(O)[C@@H](C)[C@@H](O)[C@@H](C)[C@H](OC(C)=O)[C@@H]1C (stereo not given in full)
inactive: dose: 6.25 mg/kg/injection, schedule: Q03HX024 (ip), vehicle: saline 100 % of control | dose: 12.5 mg/kg/injection, schedule: Q03HX024 (ip), vehicle: saline 110 % of control | dose: 25.0 mg/kg/injection, schedule: Q03HX024 (ip), vehicle: saline 100 % of control | dose: 50.0 mg/kg/injection, schedule: Q03HX024 (ip), vehicle: saline 100 % of control | [12] 90 % of control | dose: 100.0 mg/kg/injection, schedule: Q03HX024 (ip), vehicle: saline 100 % of control | dose: 100.0 mg/kg/injection, schedule: Q04DX003 (ip), vehicle: saline sonified 100 % of control | [13] 109 % of control | dose: 200.0 mg/kg/injection, schedule: Q04DX003 (ip), vehicle: saline sonified 100 % of control | dose: 400.0 mg/kg/injection, schedule: Q01DX009 (ip), vehicle: saline with Tween-80 118 % of control | dose: 400.0 mg/kg/injection, schedule: Q04DX003 (ip), vehicle: saline sonified 109 % of control

CC(=O)c1c(C)cc2cccc(O)c2c1O
inactive: dose: 15.0 mg/kg/injection, schedule: Q01DX005 (ip), vehicle: Klucel (hydroxypropylcellulose) (HPC) 105 % of control | dose: 30.0 mg/kg/injection, schedule: Q01DX005 (ip), vehicle: Klucel (hydroxypropylcellulose) (HPC) 112 % of control | [16] 103 % of control | [17] 108 % of control

CC(C)N1CSC(=S)N(Cc2ccccc2)C1
inactive: [14] 107 % of control | [11] 97 % of control and 98 % of control | [12] 93 % of control and 98 % of control | [13] 89 % of control

COc1ccc(CCN2C(=O)CCC3=C2CCC3=O)cc1OC
inactive: dose: 25.0 mg/kg/injection, schedule: Q01DX005 (ip), vehicle: Klucel (hydroxypropylcellulose) (HPC) 100 % of control | [1] 98 % of control | [2] 100 % of control | [3] 106 % of control

O=C(NCc1ccco1)Nc1cccc2c(NC(=O)NCc3ccco3)cccc12
inactive: [10] 100 % of control | [6] 97 % of control | [7] 90 % of control | [8] 86 % of control

COC(=O)C1=NC(=O)C(C#N)=C(C(=O)OC)C1(C(=O)c1ccc(OC)cc1)c1ccc(OC)cc1 (stereo not given)
inactive: [16] 95 % of control | [17] 91 % of control

CCOC(=O)C1=C(C)O/C(=C\c2cccc(C(F)(F)F)c2)C1=O
inactive: [4] 108 % of control | [5] 109 % of control

O=[N+]([O-])c1ccc(Sc2nc3ccccc3[nH]2)c(Cl)c1
inactive: [1] 99 % of control | [2] 100 % of control | [3] 117 % of control

O=[N+]([O-])O.[Al]
inactive: dose: 25.0 mg/kg/injection, schedule: Q01DX009 (ip), vehicle: saline 100 % of control | dose: 50.0 mg/kg/injection, schedule: Q01DX009 (ip), vehicle: saline 91 % of control | dose: 100.0 mg/kg/injection, schedule: Q01DX009 (ip), vehicle: saline 86 % of control | [15] 90 % of control
